Source: ChEMBL document CHEMBL1201862, “PubChem BioAssay data set” (2004)
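All cell lines were grown in 96-well plates and treated with compound for 48 hours. Here, GI50 denotes the concentration required for 50% inhibition of growth.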 Active and inactive are the calls of the source. No stated cut-off is given here; in the data, active = GI50 up to about 1.1 µM and inactive = higher.

What was measured:
Experiment in all cases: NCI-60 cell line screen, 48 h
[1] = tested on: UACC-62
[2] = tested on: SNB-19
[3] = tested on: SW-620
[4] = tested on: OVCAR-4
[5] = tested on: ACHN
[6] = tested on: MDA-MB-435
[7] = tested on: SK-MEL-28
[8] = tested on: MCF7
[9] = tested on: SK-MEL-5
[10] = tested on: K562
[11] = tested on: SR
[12] = tested on: COLO 205
[13] = tested on: HOP-92
[14] = tested on: NCI/ADR-RES
[15] = tested on: A549
[16] = tested on: EKVX
[17] = tested on: LOX IMVI
[18] = tested on: RXF 393
[19] = tested on: SF-539
[20] = tested on: HCT-116
[21] = tested on: MDA-N
[22] = tested on: OVCAR-5
[23] = tested on: HL-60
[24] = tested on: SF-268
[25] = tested on: MDA-MB-231
[26] = tested on: U-251
[27] = tested on: NCI-H226
[28] = tested on: UACC-257
[29] = tested on: SK-MEL-2
[30] = tested on: SN12C
[31] = tested on: TK-10
[32] = tested on: UO-31
[33] = tested on: Malme-3M
[34] = tested on: DU-145
[35] = tested on: HCT-15
[36] = tested on: KM12
[37] = tested on: HOP-62
[38] = tested on: NCI-H460
[39] = tested on: A498
[40] = tested on: BT-549
[41] = tested on: M14
[42] = tested on: PC-3
[43] = tested on: IGROV-1
[44] = tested on: SK-OV-3
[45] = tested on: NCI-H23
[46] = tested on: HCC 2998
[47] = tested on: MOLT-4
[48] = tested on: RPMI-8226
[49] = tested on: HT-29
[50] = tested on: OVCAR-3
[51] = tested on: SF-295
[52] = tested on: T47D
[53] = tested on: Hs-578T
[54] = tested on: NCI-H522
[55] = tested on: 786-0
[56] = tested on: CAKI-1
[57] = tested on: CCRF-CEM

## O=C1c2ccccc2OCC12OC21C=CC(Cl)=CC1 (stereo not given)
[1]
  GI50: 27.3 µM (inactive)
[2]
  GI50: 29.8 µM (inactive)
[3]
  GI50: 29.4 µM (inactive)
[4]
  GI50: 12.4 µM (inactive)
[5]
  GI50: 38.5 µM (inactive)
[6]
  GI50: 20.1 µM (inactive)
[7]
  GI50: 28.4 µM (inactive)
[8]
  GI50: 33.4 µM (inactive)
[9]
  GI50: 13.2 µM (inactive)
[10]
  GI50: 16.6 µM (inactive)
[11]
  GI50: 2.07 µM (inactive)
[12]
  GI50: 18 µM (inactive)
[13]
  GI50: 36.1 µM (inactive)
[14]
  GI50: 22.5 µM (inactive)
[15]
  GI50: 18.6 µM (inactive)
[16]
  GI50: 18.7 µM (inactive)
[17]
  GI50: 13.5 µM (inactive)
[18]
  GI50: 24.9 µM (inactive)
[19]
  GI50: 52.4 µM (inactive)
[20]
  GI50: 18.9 µM (inactive)
[21]
  GI50: 17 µM (inactive)
[22]
  GI50: 31.8 µM (inactive)
[23]
  GI50: 15.7 µM (inactive)
[24]
  GI50: 35.5 µM (inactive)
[25]
  GI50: 22 µM (inactive)
[26]
  GI50: 17.3 µM (inactive)
[27]
  GI50: 30.5 µM (inactive)
[28]
  GI50: 32.2 µM (inactive)
[29]
  GI50: 21.7 µM (inactive)
[30]
  GI50: 15.7 µM (inactive)
[31]
  GI50: 33.2 µM (inactive)
[32]
  GI50: 29.6 µM (inactive)
[33]
  GI50: 18.5 µM (inactive)
[34]
  GI50: 14.4 µM (inactive)
[35]
  GI50: 28.6 µM
[36]
  GI50: 17.6 µM (inactive)
[37]
  GI50: 33.7 µM (inactive)
[38]
  GI50: 20.3 µM (inactive)
[39]
  GI50: 20.7 µM (inactive)
[40]
  GI50: 37.9 µM (inactive)
[41]
  GI50: 33.5 µM (inactive)
[42]
  GI50: 26.5 µM (inactive)
[43]
  GI50: 42.9 µM (inactive)
[44]
  GI50: 51.8 µM (inactive)
[45]
  GI50: 16 µM (inactive)
[46]
  GI50: 19.1 µM (inactive)
[47]
  GI50: 0.113 µM (active)
[48]
  GI50: 14.8 µM (inactive)
[49]
  GI50: 19.1 µM (inactive)
[50]
  GI50: 20.5 µM (inactive)

## N=C1C=C(N)C(=O)c2[nH]c(=O)ccc21
[1]
  GI50: 2.3 µM (inactive)
[2]
  GI50: 2.02 µM (inactive)
[3]
  GI50: 2.88 µM (inactive)
[4]
  GI50: 1.38 µM (inactive)
[5]
  GI50: 1.73 µM (inactive)
[6]
  GI50: 1.09 µM (active)
[7]
  GI50: 20.6 µM (inactive)
[8]
  GI50: 0.351 µM (active)
[9]
  GI50: 1.8 µM (inactive)
[10]
  GI50: 1.91 µM (inactive)
[11]
  GI50: 3.44 µM (inactive)
[12]
  GI50: 1.73 µM (inactive)
[51]
  GI50: 17.3 µM (inactive)
[13]
  GI50: 2.11 µM (inactive)
[14]
  GI50: 2.27 µM (inactive)
[15]
  GI50: 2.48 µM (inactive)
[16]
  GI50: 1.92 µM (inactive)
[17]
  GI50: 2 µM (inactive)
[18]
  GI50: 1.87 µM (inactive)
[52]
  GI50: 1.76 µM (inactive)
[19]
  GI50: 2.21 µM (inactive)
[20]
  GI50: 1.1 µM (active)
[21]
  GI50: 1.01 µM (active)
[22]
  GI50: 2.5 µM (inactive)
[23]
  GI50: 2.63 µM (inactive)
[24]
  GI50: 2.04 µM (inactive)
[25]
  GI50: 1.91 µM (inactive)
[26]
  GI50: 2.04 µM (inactive)
[27]
  GI50: 2.53 µM (inactive)
[28]
  GI50: 5.07 µM (inactive)
[29]
  GI50: 2.36 µM (inactive)
[53]
  GI50: 4.42 µM (inactive)
[54]
  GI50: 1.56 µM (inactive)
[30]
  GI50: 1.76 µM (inactive)
[31]
  GI50: 12.4 µM (inactive)
[33]
  GI50: 2.39 µM (inactive)
[34]
  GI50: 8.13 µM (inactive)
[35]
  GI50: 2.06 µM
[36]
  GI50: 1.82 µM (inactive)
[37]
  GI50: 1.92 µM (inactive)
[55]
  GI50: 1.91 µM (inactive)
[38]
  GI50: 2.92 µM (inactive)
[39]
  GI50: 2.95 µM (inactive)
[41]
  GI50: 14.8 µM (inactive)
[42]
  GI50: 1.36 µM (inactive)
[56]
  GI50: 5.16 µM (inactive)
[43]
  GI50: 1.96 µM (inactive)
[44]
  GI50: 13.8 µM (inactive)
[45]
  GI50: 2.23 µM (inactive)
[46]
  GI50: 19.3 µM (inactive)
[47]
  GI50: 3.5 µM (inactive)
[48]
  GI50: 2.15 µM (inactive)
[49]
  GI50: 2.37 µM (inactive)
[50]
  GI50: 1.54 µM (inactive)
[57]
  GI50: 2.36 µM (inactive)
